Reference: US20070276011A1, “Plasminogen Activator Inhibitor-1 Inhibitor” (priority 2003, published 2007)

Target: recombinant human PAI-1 (Homo sapiens, UniProt P05121)
Test: PAI-1 inhibitory activity, Test Method A (tPA fluorogenic substrate, Tris buffer pH8.0, 37 C)
Type: biochemical
Conditions: for Inhibitory Ratio at 25 μM (%): Test Method A

Sequence of recombinant human PAI-1 (P05121 24-402): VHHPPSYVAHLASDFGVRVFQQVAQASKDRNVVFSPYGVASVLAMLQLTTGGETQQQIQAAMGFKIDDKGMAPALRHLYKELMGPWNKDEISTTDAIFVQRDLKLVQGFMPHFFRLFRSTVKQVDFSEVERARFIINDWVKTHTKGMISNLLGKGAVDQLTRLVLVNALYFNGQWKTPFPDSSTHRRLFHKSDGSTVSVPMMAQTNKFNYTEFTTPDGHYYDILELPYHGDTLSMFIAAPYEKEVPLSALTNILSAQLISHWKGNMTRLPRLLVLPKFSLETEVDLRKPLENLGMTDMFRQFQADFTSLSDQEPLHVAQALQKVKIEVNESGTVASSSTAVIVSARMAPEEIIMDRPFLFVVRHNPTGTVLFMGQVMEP

SMILES: COc1ccc(NC(=O)c2cc(C=C3SC(=O)N(Cc4ccc(Cl)c(Cl)c4)C3=O)ccc2O)cc1OC [compound 351, 5-[4-Hydroxy-3-(3,4-dimethoxyphenylcarbamoyl)benzylidene]-3-(3,4-dichlorobenzyl)thiazolidine-2,4-dione]
- Inhibitory Ratio at 25 μM (%) (25 μM test compound): 54%

SMILES: CC1=NN(c2ccc([N+](=O)[O-])cc2)C(=O)C1=Cc1cc(O)c(O)c(O)c1 [compound 135]
- Inhibitory Ratio at 25 μM (%) (test compound 25 μM): 94%

SMILES: CC(C)(C)C1=NN(c2cccc(C(=O)O)c2)C(=O)C1=Cc1ccc(Cl)c(Cl)c1 [compound 198]
- Inhibitory Ratio at 25 μM (%) (test compound 25 μM): 40%

SMILES: O=C1C(=Cc2cc(O)c(O)c(O)c2)C(c2ccccc2)=NN1c1ccc(Cl)c(Cl)c1 [compound 146]
- Inhibitory Ratio at 25 μM (%) (test compound 25 μM): >99%

SMILES: O=C1C(=Cc2ccc(Br)o2)C(C(F)(F)F)=NN1c1cccc([N+](=O)[O-])c1 [compound 195]
- Inhibitory Ratio at 25 μM (%) (test compound 25 μM): 30%

SMILES: COc1ccc(OC)c(N2C(=O)C(=Cc3ccc(O)c(O)c3)SC2=S)c1 [compound 75, 5-(3,4-Dihydroxybenzylidene)-3-(2,5-dimethoxyphenyl)rhodanine]
- Inhibitory Ratio at 25 μM (%) (test compound 25 μM): 74%

SMILES: O=C1SC(=Cc2cccc(O)c2O)C(=O)N1Cc1ccc(Cl)c(Cl)c1 [compound 8, 5-(2,3-Dihydroxybenzylidene)-3-(3,4-dichlorobenzyl)thiazolidine-2,4-dione]
- Inhibitory Ratio at 25 μM (%) (test compound 25 μM): >99%

SMILES: CC(C)(C)C1=NN(c2ccccc2)C(=O)C1=Cc1ccc(O)c(O)c1 [compound 133]
- Inhibitory Ratio at 25 μM (%) (test compound 25 μM): 55%

SMILES: Nc1cc(C=C2SC(=O)N(Cc3ccc(Cl)c(Cl)c3)C2=O)ccc1O [compound 86]
- Inhibitory Ratio at 25 μM (%) (test compound 25 μM): 21%

SMILES: COc1cc(C=C2C(=O)N(c3ccc(Cl)c(Cl)c3)N=C2C(C)C)cc([N+](=O)[O-])c1O [compound 561]
- Inhibitory Ratio at 25 μM (%) (25 μM test compound): 91%

SMILES: COc1cc(C=C2SC(=O)N(Cc3ccc(Cl)c(Cl)c3)C2=O)cc(O)c1O [compound 38]
- Inhibitory Ratio at 25 μM (%) (test compound 25 μM): >99%

SMILES: O=C1SC(=Cc2ccc(O)c(O)c2)C(=O)N1Cc1ccc(C(F)(F)F)cc1 [compound 44]
- Inhibitory Ratio at 25 μM (%) (test compound 25 μM): >99%

SMILES: COc1cc(C=C2SC(=O)N(Cc3ccc(Cl)c(Cl)c3)C2=O)cc([N+](=O)[O-])c1O [compound 346, 5-(3-methoxy-4-hydroxy-5-nitrobenzylidene)-3-(3,4-dichlorobenzyl)thiazolidine-2,4-dione]
- Inhibitory Ratio at 25 μM (%) (25 μM test compound): >99%

SMILES: COCC1=NN(c2cc(Cl)cc(Cl)c2)C(=O)C1=Cc1cc(C=Cc2ccccc2)ccc1O [compound 524]
- Inhibitory Ratio at 25 μM (%) (25 μM test compound): >99%

SMILES: O=C1SC(=Cc2cc(Br)cc(Br)c2O)C(=O)N1Cc1cc(C(F)(F)F)cc(C(F)(F)F)c1 [compound 2, 5-(3,5-Dibromo-2-hydroxybenzylidene)-3-[3,5-bis(trifluoromethyl)benzyl]-thiazolidine-2,4-dione]
- Inhibitory Ratio at 25 μM (%) (test compound 25 μM): 52%

SMILES: COC(=O)c1cccc(-c2ccc(C=C3C(=O)N(c4ccc(F)cc4)N=C3O)o2)c1 [compound 160]
- Inhibitory Ratio at 25 μM (%) (test compound 25 μM): 50%

SMILES: O=C1SC(=Cc2ccc([O-])c([O-])c2)C(=O)N1Cc1ccc(Cl)cc1Cl.[Na+].[Na+] [compound 339]
- Inhibitory Ratio at 25 μM (%) (25 μM test compound): >99%

SMILES: COc1ccc(-c2ccccc2)cc1NC(=O)c1cc(C=C2SC(=O)N(Cc3ccc(Cl)c(Cl)c3)C2=O)ccc1O [compound 455]
- Inhibitory Ratio at 25 μM (%) (25 μM test compound): >99%

SMILES: O=C1SC(=Cc2ccc(O)c(-c3ccc(O)c(O)c3)c2)C(=O)N1Cc1ccc(Cl)c(Cl)c1 [compound 445]
- Inhibitory Ratio at 25 μM (%) (25 μM test compound): >99%

SMILES: O=C(Nc1ccc(Cl)nc1)c1cc(C=C2SC(=O)N(Cc3ccc(C(F)(F)F)cc3)C2=O)ccc1O [compound 392]
- Inhibitory Ratio at 25 μM (%) (25 μM test compound): >99%

SMILES: CC(C)C1=NN(c2cc(Cl)ccc2Cl)C(=O)C1=Cc1cc(O)c(O)cc1O [compound 502, 4-(2,4,5-Trihydroxybenzylidene)-1-(2,5-dichlorophenyl)-3-isopropyl-2-pyrazolin-5-one]
- Inhibitory Ratio at 25 μM (%) (25 μM test compound): 66%

SMILES: CC(C)C1=NN(c2cc(Cl)cc(Cl)c2)C(=O)C1=Cc1ccc(O)c(O)c1 [compound 107]
- Inhibitory Ratio at 25 μM (%) (test compound 25 μM): >99%

SMILES: O=C(O)c1cc(C=C2SC(=O)N(Cc3ccc(Cl)c(Cl)c3)C2=O)ccc1O [compound 358, 5-(3-Carboxy-4-hydroxybenzylidene)-3-(3,4-dichlorobenzyl)thiazolidine-2,4-dione]
- Inhibitory Ratio at 25 μM (%) (25 μM test compound): 95%

SMILES: O=C1SC(=Cc2cc(O)cc(O)c2)C(=O)N1Cc1ccc(Cl)c(Cl)c1 [compound 40]
- Inhibitory Ratio at 25 μM (%) (test compound 25 μM): >99%

SMILES: COc1ccc(NC(=O)c2cc(C=C3SC(=O)N(CCc4ccc(Cl)cc4)C3=O)ccc2O)cc1OC [compound 375, 5-[4-Hydroxy-3-(3,4-dimethoxyphenylcarbamoyl)benzylidene]-3-[2-(4-chlorophenyl)ethyl]thiazolidine-2,4-dione]
- Inhibitory Ratio at 25 μM (%) (25 μM test compound): 63%

SMILES: O=C1C(=Cc2ccc(O)c(O)c2O)C(c2ccccc2)=NN1c1ccc(Cl)c(Cl)c1 [compound 148]
- Inhibitory Ratio at 25 μM (%) (test compound 25 μM): 62%

SMILES: CC1=NN(c2ccc([N+](=O)[O-])cc2)C(=O)C1=Cc1cc(C=Cc2ccccc2)ccc1O [compound 533]
- Inhibitory Ratio at 25 μM (%) (25 μM test compound): >99%

SMILES: O=C(Nc1ccc(O)nc1)c1cc(C=C2SC(=O)N(Cc3ccc(Cl)c(Cl)c3)C2=O)ccc1O [compound 408]
- Inhibitory Ratio at 25 μM (%) (25 μM test compound): >99%

SMILES: COC(=O)c1c(O)cc(C=C2SC(=O)N(Cc3ccc(Cl)cc3Cl)C2=O)cc1O [compound 342, 5-[3,5-Dihydroxy-4-(methoxycarbonyl)benzylidene]-3-(2,4-dichlorobenzyl)thiazolidine-2,4-dione]
- Inhibitory Ratio at 25 μM (%) (25 μM test compound): 37%

SMILES: Cc1cc(C=C2SC(=O)N(Cc3ccc(Cl)c(Cl)c3)C2=O)cc(C(=O)O)c1O [compound 390, 5-(3-Methyl-4-hydroxy-5-carboxybenzylidene)-3-(3,4-dichlorobenzyl)thiazolidine-2,4-dione]
- Inhibitory Ratio at 25 μM (%) (25 μM test compound): >99%

SMILES: O=C1SC(=Cc2ccc(O)c(O)c2)C(=O)N1Cc1cccc(Oc2ccccc2)c1 [compound 17]
- Inhibitory Ratio at 25 μM (%) (test compound 25 μM): >99%

SMILES: O=C1SC(=Cc2ccc(O)c(O)c2)C(=O)N1Cc1cnc(Cl)c(Cl)c1 [compound 304, 5-(3,4-Dihydroxybenzylidene)-3-[(5,6-dichloropyridin-3-yl)-methyl]thiazolidine-2,4-dione]
- Inhibitory Ratio at 25 μM (%) (25 μM test compound): >99%

SMILES: O=C1SC(=Cc2ccc(O)c(O)c2)C(=O)N1Cc1ccc(Br)cc1 [compound 37]
- Inhibitory Ratio at 25 μM (%) (test compound 25 μM): >99%

SMILES: O=C1C(=Cc2cc(O)c(O)c(O)c2)SC(=S)N1Cc1ccc(Cl)c(Cl)c1 [compound 303]
- Inhibitory Ratio at 25 μM (%) (25 μM test compound): >99%
- IC50 (50% inhibitory concentration of PAI-1 activity, according to the aforementioned method): 390 nM

SMILES: COCC1=NN(c2ccc([N+](=O)[O-])cc2)C(=O)C1=Cc1cc(C=Cc2ccccc2)ccc1O [compound 538, 4-(2-Hydroxy-5-styrylbenzylidene)-1-(4-nitrophenyl)-3-methoxymethyl-2-pyrazolin-5-one]
- Inhibitory Ratio at 25 μM (%) (25 μM test compound): >99%

SMILES: CCOC1=NN(c2ccc([N+](=O)[O-])cc2)C(=O)C1=Cc1c(Br)ccc(O)c1O [compound 551]
- Inhibitory Ratio at 25 μM (%) (25 μM test compound): 75%

SMILES: O=C1SC(=Cc2ccc(O)c(O)c2)C(=O)N1Cc1cc(C(F)(F)F)cc(C(F)(F)F)c1 [compound 4]
- Inhibitory Ratio at 25 μM (%) (test compound 25 μM): >99%

SMILES: CC1=NN(c2cc(Cl)cc(Cl)c2)C(=O)C1=Cc1cc(O)c(O)c(O)c1 [compound 143]
- Inhibitory Ratio at 25 μM (%) (test compound 25 μM): >99%

SMILES: O=C1C(=Cc2cc(Br)cc(Br)c2O)C(O)=NN1c1ccccc1 [compound 101]
- Inhibitory Ratio at 25 μM (%) (test compound 25 μM): 28%

SMILES: O=C1SC(=Cc2c[nH]c3ccccc23)C(=O)N1Cc1ccc(Cl)c(Cl)c1 [compound 410, 5-(indol-3-ylmethylene)-3-(3,4-dichlorobenzyl)thiazolidine-2,4-dione]
- Inhibitory Ratio at 25 μM (%) (25 μM test compound): 36%

SMILES: COc1cc(C=C2C(=O)N(c3cccc(C(=O)O)c3)N=C2C)cc(Br)c1OCC(=O)NCc1ccccc1 [compound 174]
- Inhibitory Ratio at 25 μM (%) (test compound 25 μM): 62%

SMILES: COc1ccc(NC(=O)c2cc(C=C3SC(=O)N(Cc4ccc(Cl)c(Cl)c4)C3=O)ccc2O)cc1 [compound 353, 5-[4-hydroxy-3-(4-methoxyphenylcarbamoyl)benzylidene]-3-(3,4-dichlorobenzyl)thiazolidine-2,4-dione]
- Inhibitory Ratio at 25 μM (%) (25 μM test compound): 66%

SMILES: O=C(Nc1cccc(C=C2SC(=O)N(Cc3ccc(Cl)c(Cl)c3)C2=O)c1)c1ccc(O)c(O)c1 [compound 370]
- Inhibitory Ratio at 25 μM (%) (25 μM test compound): >99%

SMILES: O=C(Nc1ccccc1)c1ccc(CN2C(=O)SC(=Cc3ccc(O)c(O)c3)C2=O)cc1 [compound 301, 5-(3,4-Dihydroxybenzylidene)-3-[4-(phenylcarbamoyl)benzyl]thiazolidine-2,4-dione]
- Inhibitory Ratio at 25 μM (%) (25 μM test compound): >99%

SMILES: O=C1C(=Cc2ccc(Br)o2)C(c2ccccc2)=NN1c1cccc([N+](=O)[O-])c1 [compound 199]
- Inhibitory Ratio at 25 μM (%) (test compound 25 μM): 85%

SMILES: COc1ccc(NC(=O)c2cc(C=C3SC(=O)N(Cc4cc(F)cc(F)c4)C3=O)ccc2O)cc1OC [compound 385, 5-[4-Hydroxy-3-(3,4-dimethoxyphenylcarbamoyl)benzylidene]-3-(3,5-difluorobenzyl)thiazolidine-2,4-dione]
- Inhibitory Ratio at 25 μM (%) (25 μM test compound): >99%

SMILES: COC(=O)c1cccc(N2N=C(C(F)(F)F)C(=Cc3ccc(SCCN(C)C)s3)C2=O)c1 [compound 178]
- Inhibitory Ratio at 25 μM (%) (test compound 25 μM): 40%

SMILES: CC(C)C1=NN(c2ccc(C(=O)O)cc2)C(=O)C1=Cc1cc(C=Cc2ccccc2)ccc1O [compound 534]
- Inhibitory Ratio at 25 μM (%) (25 μM test compound): 64%

SMILES: CC(C)C1=NN(c2cc(Cl)cc(Cl)c2)C(=O)C1=Cc1cccc(C(=O)O)c1 [compound 212]
- Inhibitory Ratio at 25 μM (%) (test compound 25 μM): 82%

SMILES: O=C1C(=Cc2cc(Cl)ccc2O)SC(=S)N1c1ccccc1 [compound 65]
- Inhibitory Ratio at 25 μM (%) (test compound 25 μM): 21%

SMILES: O=C(O)c1ccc(CN2C(=O)SC(=Cc3ccc(O)c(C(=O)Nc4ccc(Cl)c(Cl)c4)c3)C2=O)cc1 [compound 418]
- Inhibitory Ratio at 25 μM (%) (25 μM test compound): 80%

SMILES: COc1ccc(C=Cc2ccccc2)cc1C=C1C(=O)N(c2ccc([N+](=O)[O-])cc2)N=C1C(C)C [compound 532, 4-(2-Methoxy-5-styrylbenzylidene)-1-(4-nitrophenyl)-3-isopropyl-2-pyrazolin-5-one]
- Inhibitory Ratio at 25 μM (%) (25 μM test compound): 78%

SMILES: COc1cc(C=C2C(=O)N(c3cc(Cl)cc(Cl)c3)N=C2C(C)C)cc(Br)c1O [compound 539, 4-(3-Methoxy-4-hydroxy-5-bromobenzylidene)-1-(3,5-dichlorophenyl)-3-isopropyl-2-pyrazolin-5-one]
- Inhibitory Ratio at 25 μM (%) (25 μM test compound): 80%
